Laboratory results published in US11512074B2, “Substituted diamino heterocyclic carboxamide compound and a composition containing the compound and use thereof” (Shenzhen TargetRx, Inc., priority 2018, dated 2022).
Where two headings read alike, the source gives them in different places.

Experiments:
[1] = Pharmacokinetic experiment in rats; type: in vivo, Sprague-Dawley rats; details: rat; for AUC(0-t) / Cmax / Tmax / half-life / AUC(0-inf) / MRT inf: male, Sprague-Dawley, plasma; for AUC(0-inf): read-out: AUCINF_pred; for MRT inf: read-out: MRTINF_pred; for F: PO 10 mg/kg vs IV 3 mg/kg
Experimental: Six male Sprague-Dawley rats, 7 to 8 weeks old, weighing approximately 210 g, were divided into 2 groups with 3 rats in each group. The pharmacokinetic differences of the compounds were compared after they were administered to the rats at a single dose through vein (in vein 3 mg/kg) or mouth (orally 10 mg/kg).
The rats were fed with standard feed and water, and fasted 16 hours before the experiment. The drugs were dissolved with PEG400 and dimethyl sulfoxide. The blood samples were collected from eyelids at the time point of 0.083, 0.25, 0.5, 1, 2, 4, 6, 8, 12 and 24 hours after administration.
The rats were anesthetized for a short time after inhaling ether, and 300 μL of blood samples was collected from the eyelids and put into test tubes, which contains 30 μL of 1% heparin salt solution. The test tubes were dried overnight at 60° C. prior to use. After the blood sample collection at the last time point, the rats were sacrificed after the ether anesthesia.
Immediately after the collection of the blood samples, the test tubes were gently inverted at least 5 times to ensure the fully mixing and placed on ice. The blood samples were centrifuged at 4° C., 5000 rpm for 5 minutes to separate the plasma from the red blood cells. 100 μL of plasma was pipetted into a clean plastic centrifuge tube, with the name of the compound and time point on it. The plasma was stored at −80° C. before analysis, and LC-MS/MS was used to determine the concentration of the compounds disclosed herein in plasma. Pharmacokinetic parameters were calculated based on the plasma concentrations of each animal at different time points.

[2] = Metabolic stability in human liver microsomes; type: in vitro ADME; details: pH 7.4; human liver microsomes 0.5 mg/mL, 1 μM compound
Experimental: Microsome assay: human liver microsomes: 0.5 mg/mL, Xenotech; rat liver microsomes: 0.5 mg/mL, Xenotech; coenzyme (NADPH/NADH): 1 mM, Sigma Life Science; magnesium chloride: 5 mM, 100 mM phosphate buffer (pH 7.4).
Preparation of stock solutions: Powder of the example compounds and the control compound were accurately weighed and dissolved in DMSO to 5 mM respectively.
Preparation of phosphate buffer (100 mM, pH7.4): A pre-prepared 0.5 M potassium dihydrogen phosphate (150 mL) was mixed with 0.5 M dibasic potassium phosphate (700 mL). The pH of the mixture was adjusted to 7.4 with 0.5 M dibasic potassium phosphate solution. The mixture was diluted 5-fold with ultrapure water before use, and magnesium chloride was added to obtain a phosphate buffer (100 mM) containing 100 mM potassium phosphate, 3.3 mM magnesium chloride, pH 7.4.
A NADPH regeneration system solution (containing 6.5 mM NADP, 16.5 mM G-6-P, 3 U/mL G-6-P D, 3.3 mM magnesium chloride) was prepared and placed on wet ice prior to use.
Preparation of stop solution: an acetonitrile solution containing 50 ng/mL propranolol hydrochloride and 200 ng/mL tolbutamide (internal standard). 25057.5 μL of phosphate buffer (pH 7.4) was taken into a 50 mL centrifuge tube, to which 812.5 μL of human liver microsomes were added, and mixed to obtain a liver microsome dilution with a protein concentration of 0.625 mg/mL. 25057.5 μL of phosphate buffer (pH 7.4) was taken into a 50 mL centrifuge tube, to which 812.5 μL of SD rat microsomes were added, and mixed to obtain a liver microsome dilution with a protein concentration of 0.625 mg/mL.
Incubation of the samples: The stock solutions of the respective compounds were respectively diluted to 0.25 mM with an aqueous solution containing 70% acetonitrile, and used as a working solution, ready for use. 398 μL of the dilutions of human liver microsomes and rat liver microsomes were added to 96-well incubation plates (N=2), respectively, and 2 μL of 0.25 mM working solution was added respectively and mixed.
Metabolic stability assay: 300 μL of pre-chilled stop solution was added to each well of 96-well deep well plates and placed on ice as stop plates. The 96-well incubation plates and NADPH regeneration system were placed in a 37° C. water bath, shaken at 100 rpm and pre-incubated for 5 min. 80 μL of incubation solution was taken out from each well of the incubation plates and added to the stop plates, mixed, and replenished with 20 μL of NADPH regeneration system solution as a 0-min sample. 80 μL of NADPH regeneration system solution was added to each well of the incubation plates to start the reaction and start counting. […] Separately, 100 μL of the reaction solutions was taken at 10, 30, and 90 min after the reaction, respectively, added to stop plates, and vortexed for 3 minutes to terminate the reaction. The stop plates were centrifuged at 5000×g at 4° C. for 10 min. 100 μL of the supernatant was added to a 96-well plate to which 100 μL of distilled water was previously added, mixed, and analyzed by LC-MS/MS.
Data analysis: The peak areas of the corresponding compounds and internal standard were detected by LC-MS/MS system, and the ratio of the peak area of the compounds to the internal standard was calculated.

SMILES	AUC(0-t) ([1]; IV 3 mg/kg)	Cmax ([1]; IV 3 mg/kg)	Tmax ([1]; IV 3 mg/kg)	half-life ([1]; IV 3 mg/kg)	AUC(0-inf) ([1]; IV 3 mg/kg)	MRT inf ([1]; IV 3 mg/kg)	AUC(0-t) ([1]; PO 10 mg/kg)	Cmax ([1]; PO 10 mg/kg)	Tmax ([1]; PO 10 mg/kg)	half-life ([1]; PO 10 mg/kg)	AUC(0-inf) ([1]; PO 10 mg/kg)	MRT inf ([1]; PO 10 mg/kg)	Vz_pred ([1]; IV 3 mg/kg)	Vz_pred ([1]; PO 10 mg/kg)	F [1]	half-life at 1 μM [2]	microsomal CLint at 1 μM [2]
[2H]C([2H])([2H])Oc1cc(Nc2nc(NC3CCOCC3)c(CC)nc2C(N)=O)ccc1N1CCC(N2CCN(C)CC2)CC1 [Compound T-1, 6-ethyl-3-((3-(methoxy-d3)-4-(4-(4-methylpiperazin-1-yl)piperidin-1-yl)phenyl)amino)-5-((tetrahydro-2H-pyran-4-yl)amino)pyrazine-2-carboxamide]	556 ng·h/mL	138 ng/mL	0.08 h	3.59 h	572 ng·h/mL	4.2 h	510 ng·h/mL	48.4 ng/mL	5.33 h	5.93 h	578 ng·h/mL	7.89 h	28.80 L/kg	162.8 L/kg	27.52%	–	–
[2H]C([2H])([2H])N1CCN(C2CCN(c3ccc(Nc4nc(NC5CCOCC5)c(CC)nc4C(N)=O)cc3OC)CC2)CC1 [Compound T-2, 6-ethyl-3-((3-methoxy-4-(4-(4-(methyl-d3)piperazin-1-yl)piperidin-1-yl)phenyl)amino)-5-((tetrahydro-2H-pyran-4-yl)amino)pyrazine-2-carboxamide]	–	–	–	–	–	–	–	–	–	–	–	–	–	–	–	3.63 h	6.4 µL/min/mg
[2H]C([2H])([2H])Oc1cc(Nc2nc(NC3CCOCC3)c(CC)nc2C(N)=O)ccc1N1CCC(N2CCN(C([2H])([2H])[2H])CC2)CC1 [Compound T-3, 6-ethyl-3-((3-(methoxy-d3)-4-(4-(4-(methyl-d3)piperazin-1-yl)piperidin-1-yl)phenyl)amino)-5-((tetrahydro-2H-pyran-4-yl)amino)pyrazine-2-carboxamide]	–	–	–	–	–	–	–	–	–	–	–	–	–	–	–	3.33 h	6.9 µL/min/mg
[2H]C([2H])([2H])N1CCN(C2CCN(c3ccc(Nc4nc(NC5CCOCC5)c(C([2H])([2H])C([2H])([2H])[2H])nc4C(N)=O)cc3OC)CC2)CC1 [Compound T-5, 6-(ethyl-d5)-3-((3-methoxy-4-(4-(4-(methyl-d3)piperazin-1-yl)piperidin-1-yl)phenyl)amino)-5-((tetrahydro-2H-pyran-4-yl)amino)pyrazine-2-carboxamide]	–	–	–	–	–	–	–	–	–	–	–	–	–	–	–	3.14 h	7.4 µL/min/mg
[2H]C1([2H])N(C)C([2H])([2H])C([2H])([2H])N(C2CCN(c3ccc(Nc4nc(NC5CCOCC5)c(CC)nc4C(N)=O)cc3OC)CC2)C1([2H])[2H] [Compound T-8, 6-ethyl-3-((3-methoxy-4-(4-(4-methylpiperazin-1-yl-2,2,3,3,5,5,6,6-d8)piperidin-1-yl)phenyl)amino)-5-((tetrahydro-2H-pyran-4-yl)amino)pyrazine-2-carboxamide]	–	–	–	–	–	–	–	–	–	–	–	–	–	–	–	4.36 h	5.3 µL/min/mg
[2H]C([2H])([2H])N1C([2H])([2H])C([2H])([2H])N(C2CCN(c3ccc(Nc4nc(NC5CCOCC5)c(CC)nc4C(N)=O)cc3OC)CC2)C([2H])([2H])C1([2H])[2H] [Compound T-9, 6-ethyl-3-((3-methoxy-4-(4-(4-(methyl-d3)piperazin-1-yl-2,2,3,3,5,5,6,6-d8)piperidin-1-yl)phenyl)amino)-5-((tetrahydro-2H-pyran-4-yl)amino)pyrazine-2-carboxamide]	–	–	–	–	–	–	–	–	–	–	–	–	–	–	–	7.88 h	2.9 µL/min/mg
CCc1nc(C(N)=O)c(Nc2ccc(N3CCC(N4CCN(C)CC4)CC3)c(OC)c2)nc1NC1CCOCC1 [Gilteritinib, 6-ethyl-3-((3-methoxy-4-(4-(4-methylpiperazin-1-yl)piperidin-1-yl)phenyl)amino)-5-((tetrahydro-2H-pyran-4-yl)amino)pyrazine-2-carboxamide, reference compound]	449 ng·h/mL	196 ng/mL	0.08 h	4.08 h	509 ng·h/mL	3.44 h	317 ng·h/mL	34.6 ng/mL	8 h	5.76 h	435 ng·h/mL	7.46 h	34.89 L/kg	212.0 L/kg	21.15%	2.75 h	8.4 µL/min/mg
